Results published in patent US4977276A, “Heteroarotinoids as anticancer agents” (The Board of Regents for the Oklahoma Agricultural and …, priority 1989, dated 1990).
Values after ≈ are worked out from the molar mass of the structure shown. “Also recorded” adds a separate entry of the source. Read-outs that look alike come from different tables or passages of the source.

Key:
[1] = system: ornithine decarboxylase (ODC); test: suppression of TPA induced ornithine decarboxylase (ODC) activity in mouse skin; format: in vivo; conditions: for % of Inhibition as Compared to Control: second table (60 min)
Experimental: In the ODC assay, either 13-cis-retinoic acid or trans-retinoic acid was employed. The following Table summarizes the result of the ODC assays.
Epidermus was separated, homogenized, and centrifuged at 30,000× g. Soluble epidermal ODC activity was assayed. The retinoids were evaluated in three independent experiments (3 groups of mice with 3 mice per group) and the results from the experiments were normalized (% inhibition) for comparison. […] Which standard is used appears to be relatively unimportant for determining activity in the assay, but the data presented in the Table identifies the standard for sake of clarity and accuracy of presentation. Thus, the presence of the heteroatom in these arotinoids has not eliminated biological activity. […] Consequently, the nature of the terminus group is also important.

HL-60 cells = test: induction of differentiation of human HL-60 promyelocytic cells (NBT reduction); format: cell-based; conditions: HL-60, 96 h, read-out: concentration of retinoid effective in achieving a half-maximal response (ED50)
Experimental: These mature cells, unlike the uninduced HL-60, produced superoxide anion when simulated with an appropriate agent, such as TPA. The ability of the individual cells to produce superoxide can be measured by incubating cells with the water-soluble yellow dye, nitroblue tetrazolium (NBT). NBT is reduced to a water-insoluble blue-black formazan by superoxide. This formazan precipitate is associated with those cells that produce superoxide. Thus, the percentage of cells in a population that produce superoxide (NBT-positive cells) can be enumerated under a light microscope.
After incubation for 4 days at 37° C. in a humidified atmosphere of 5% CO2 and air, the capacity of the cells to reduce NBT was determined. […] This cell suspension was mixed with an equal volume of phosphate buffered saline containing 1 mg of NBT/mL and […]. The reaction mixture was incubated at 37° C. for 25 minutes, and the reaction was terminated by cooling in an ice water bath. Cytospin slides were prepared from a portion of this reaction mixture and stained with Wright-Giemsa. A minimum of 200 cells were counted under light microscopy to determine the percentage of cells with cell-associated formazan.

[2] = system: HT-29 (colon adenocarcinoma); test: Human Tumor Cell Line Bioassay (HTCL), HT-29; format: cell-based; conditions: HT-29, MTT, O.D. 50% of control
Experimental: (§1) The Human Tumor Cell Line Bioassay (HTCL) has been conducted in a manner similar to the procedure described by Alley and co-workers (Cancer Research 1988, 48, 589-601). A panel of 4 tumor cell lines were grown in microliter plates and various concentrations of the test compounds were added to the wells. After 4 days, the number of viable cells were measured in terms of production of formazin after incubation with MTT [3-(4,5-dimethylthiazol-2-yl)-2,5-diphenyltetrazolium bromide]. Formazin production is directly proportional to the viable cell number/well and can be measured spectrophotometrically after solubilization.
The cell lines used in the HTCL assay were A-549 (lung adenocarcinoma), HT-29 (colon adenocarcinoma), MCF-7 (breast adenocarcinoma), and RPMI-7951 (melanoma). […] After detaching from the flask, the cells were resuspended in their appropriate medium, counted on a Coulter Counter (ZBI), and an aliquot was transferred to new T-25 flasks. […] The plates were read on a Dynatech 700 plate reader at 540 nm, and the data were collected on an IBM PC. The data were graphed and the ED50 was determined from the graph.

RPMI-7951 (melanoma) = test: Human Tumor Cell Line Bioassay (HTCL), RPMI-7951; format: cell-based; design: key to ED50 Values: NDT: No detectable toxicity; conditions: RPMI-7951, MTT, O.D. 50% of control; for IC50: Homo sapiens, read-out: ED50 Values
Experimental: as §1
The cell lines used in the HTCL assay were A-549 (lung adenocarcinoma), HT-29 (colon adenocarcinoma), MCF-7 (breast adenocarcinoma), and RPMI-7951 (melanoma). With the exception of HT-29, these cells have been adopted to grow in B10 medium which consists of Eagle's Minimum Essential Medium supplemented with 1.5× the essential amino acids, 2× the non-essential amino acids, 1.5× vitamins, 1× L-glutamine, 10% calf bovine serum (CBS), and 1× antibiotic solution (PSF) consisting of 50 U/mL of penicillin, 50 ug/mL of streptomycin sulfate, and 50 ug/mL of amphotericin B. HT-29 cells were grown in McCoy's 5A medium supplemented with 10% CBS and 1× PSF. Stock cultures of cells were routinely grown in 25 cm^2 flasks (T-25) and passaged on a weekly basis. Cells were passaged by washing twice with phosphate buffered saline (PBS) and once with a 0.005% trypsin--0.01% EDTA solution. Trypsin-EDTA solution was added and the flask was allowed to incubate for 2-5 minutes until the cells were detached. After detaching from the flask, the cells were resuspended in their appropriate medium, counted on a Coulter Counter (ZBI), and an aliquot was transferred to new T-25 flasks. The remaining cells were used to set up the assay in 96 well microliter plates. Either 3,000 (HT-29, MCF-7) or 2,000 (A-549, RPMI-7951) cells were added to the wells in a 96-well microliter plate in 0.2 mL of medium (Day 1). On Day 2, the compounds were resuspended at 1 or 2 mg/mL in acetone, and the compounds were serially diluted 10 or 5 fold in PBS and 20 uL of each dilution starting at 100 or 200 ug/mL was added to 4 wells of the microliter plate. Doxyrubicin was used as a positive control compound. On Day 7, 20 uL of MTT (2 mg/mL) was added to each of the wells. The plates were then incubated at 37° C. for 4 hours. After incubation, the medium and MTT were removed by aspiration and 100 uL of DMSO was added to solubilize the formazin product. The plates were read on a Dynatech 700 plate reader at 540 nm, and the data were collected on an IBM PC. The data were graphed and the ED50 was determined from the graph.

[3] = retinoid dose 17 nmol + TPA, first table, acetone + TPA control 0.90
[4] = in comparison with 13-cis-retinoic acid as the standard, or among the tested compounds
[5] = incubation 4 days at 37° C., NBT-positive cells
[6] = retinoid dose 34 nmol + TPA, second table, acetone + TPA control 1.67
[7] = with trans-retinoic acid as the standard

CC1=C(/C=C/C(C)=C/C=C/C(C)=C\C(=O)O)C(C)(C)CCC1 [13-cis-retinoic acid, reference compound]
ODC Activity [1, 3]: 0.1 ± 0.01 nmol CO2 /30 min/mg protein
% of Inhibition as Compared to Control ([1]; retinoid dose 17 nmol + TPA): 92%
ODC Activity ([1]; retinoid dose 17 nmol + TPA, second table, acetone + TPA control 1.67): 0.14 ± 0.04 nmol CO2 /60 min/mg protein

CC(/C=C/C=C(\C)c1ccc2c(c1)C(C)(C)CCS2)=C\C(=O)O [(38), 7-[4.4-Dimethylthiochroman-6-yl]-3,7-dimethyl-2,4,6-heptatrienoic acid]
activity in the ODC assay in words [1, 4]: essentially equivalent in activity to the standard
ODC Activity [1, 3]: 0.1 ± 0.01 nmol CO2 /30 min/mg protein
EC50 (HL-60 cells; [5]): 72 nM

CCOC(=O)/C=C(C)/C=C/C=C(\C)c1ccc2c(c1)C(C)(C)CCS2 [(39), Ethyl 7-[4,4-Dimethylthiochroman-6-yl]-3,7-dimethyl-2,4,6-heptatrienoate]
activity in the ODC assay in words [1, 4]: strongest activity; also recorded: more active
ODC Activity [1, 3]: 0.0 ± 0.0 nmol CO2 /30 min/mg protein

CC(/C=C/C=C(\C)c1ccc2c(c1)C(C)(C)CCS2)=C\C(=O)OCCN1C(=O)c2ccccc2C1=O [(40), (2-Phthalimide-ethyl) 7-[4,4-Dimethylthiochroman-6-yl]-3-7-dimethyl-2,4,6-heptatrienoate]
% of Inhibition as Compared to Control ([1]; retinoid dose 34 nmol + TPA): 42%
ODC Activity [1, 6]: 0.97 ± 0.13 nmol CO2 /60 min/mg protein
activity in the ODC assay in words [1, 7]: less active compared to the same control

CC(/C=C/C=C(\C)c1ccc2c(c1)C(C)(C)CCO2)=C\C(=O)O [(47), 7-[4,4-Dimethylchroman-6-yl]-3,7-dimethyl-2,4,6-heptatrienoic acid]
% of Inhibition as Compared to Control ([1]; retinoid dose 34 nmol + TPA): 74%
ODC Activity [1, 6]: 1.4 ± 0.2 nmol CO2 /60 min/mg protein
activity in the ODC assay in words [1, 7]: slightly less active than the standard
EC50 (HL-60 cells; [5]): 200 nM

COc1cccc2c1C(=O)c1c(O)c3c(c(O)c1C2=O)C[C@@](O)(C(=O)CO)C[C@@H]3O[C@H]1C[C@H](N)[C@H](O)[C@H](C)O1 [Doxyrubicin]
ED50 Values ([2]; 5760 min): 0.6 µg/mL (≈ 1.1 µM)
IC50 ([2]; Homo sapiens, HT-29, 96 h, read-out: ED50 Values): 0.3 µg/mL (≈ 0.552 µM)
IC50 (RPMI-7951 (melanoma); RPMI-7951, 96 h): 0.2 µg/mL (≈ 0.368 µM)
ED50 Values (RPMI-7951 (melanoma); 5760 min): 0.1 µg/mL (≈ 0.184 µM)

CC1=C(/C=C/C(C)=C/C=C/C(C)=C/C(=O)O)C(C)(C)CCC1 [trans-retinoic acid]
EC50 (HL-60 cells): 41 nM
IC50 (RPMI-7951 (melanoma); 96 h): 30 µg/mL (≈ 99.9 µM)
ED50 Values (RPMI-7951 (melanoma)): NDT
